# Assay results: PMC10590383, “Repurposing conformational changes in ANL superfamily enzymes to rapidly generate biosensors for organic and amino acids” (Nature Communications, 2023)
# Key:
# [1] = tested on: At4CL2; details: ATP Km of At4CL2, homolog of Nt4CL2; cited from earlier work
# [2] = molecular target: T1, GECFINDER-ATP (Bacillus subtilis, UniProt P39845); assay: Fluorescence dose-response of purified […]-ATP with ATP as the varied ligand (10 nM to 2 mM), 100 mM Tris pH 7.5, room temperature, excitation/emission 480/510 nm.; format: biochemical; details: n = 3
# T1 construct: gene ppsA; PpsA-GluA A domain; LE-cpEGFP-TR inserted between Asp425 and Asp426 in hinge A
# Experimental: The study conducted dose–response curve, substrate specificity, and fluorescent spectrum analyses in 100-mM Tris buffer (pH = 7.5), while pH stability experiments were performed in 100-mM Tris buffer at three different pH values (6.5, 7.5, and 8.5) at room temperature. […] protein at a concentration of 0.75 μM, various small molecule concentrations, 1 mM ATP, and 2.5 mM MgCl2 were used in the experiments. Fluorescent signals were detected using a Microplate Reader (Synergy H4, Bio Tek) at an excitation/emission wavelength of 460 nm/510 nm or 480 nm/510 nm. The dose-response curve was determined immediately after the addition of the analyte. The total duration of the measurement was 15 min, with readings taken at one-minute intervals. The dose-response curve was plotted using the fluorescence values obtained after achieving stability in the fluorescence signal. The dose-response curves were fitted using the logistic model LOGISTIC5 available in Origin 2021, which could provide a more adequate fit to asymmetric dose-response data[62],[63]. […] The thermal stability of […] was analyzed using the UNcle multifunctional protein stability analysis system. […] Absolute fluorescence quantum yields were measured using an absolute photoluminescence quantum yield spectrometer (FS5, Edinburgh). […]
# [3] = tested on: GrsA-Phe A domain; details: Km for ATP of GrsA-Phe A domain; cited from earlier work
# [4] = Dependence of […]s on Mg2+ and ATP (fluorescence intensity); format: biochemical; details: ATP +
# Source text: Ligand specificity is an important biosensors feature. Generally, the NRPS A domains have high specificity for their substrates because they are the first “gatekeeper” of NRPSs and ensure that the correct monomers are activated and thioesterified[32],[33]. […] Twenty proteinogenic amino acids were used to test the ligand specificity of […]s. […] We also investigated the dependence of […]s on Mg^2+ and ATP (Supplementary Fig. 4).
# Supplementary Fig. 4 Dependence of GEC FINDER s on Mg2+ and ATP . a-j, Fluore scence intensities of
# GECF IN DERs in the absence of any substra te, in the pre sence of Mg2+ alone, ATP alone, both Mg2+ and ATP, Mg2+
# and ATP with re spective substra tes. Mg2+ concentra tion was 2.5 mM, and ATP concentra tion was 1 mM. a, 100 μM
# data are provided as a Source Data file.
# [5] = Fluorescence spectra / excitation wavelength scan of […]s; format: physicochemical; details: Wavelength 300 nm
# Experimental: (§1) Fig. 3 Dose–response curves and fluorescence spectrums of […]s. a, c, e, g, i, k Dose–response curve of purified […]s with increasing concentrations of ligand in 100 mM Tris-HCl buffer (pH=7.5). […] All data shown are mean ± S.D. (n = 3 biologically independent samples). Source data are provided as a Source data file.
# (§2) The study conducted dose–response curve, substrate specificity, and fluorescent spectrum analyses in 100-mM Tris buffer (pH = 7.5), while pH stability experiments were performed in 100-mM Tris buffer at three different pH values (6.5, 7.5, and 8.5) at room temperature. […] protein at a concentration of 0.75 μM, various small molecule concentrations, 1 mM ATP, and 2.5 mM MgCl2 were used in the experiments. Fluorescent signals were detected using a Microplate Reader (Synergy H4, Bio Tek) at an excitation/emission wavelength of 460 nm/510 nm or 480 nm/510 nm. The dose-response curve was determined immediately after the addition of the analyte. The total duration of the measurement was 15 min, with readings taken at one-minute intervals. The dose-response curve was plotted using the fluorescence values obtained after achieving stability in the fluorescence signal. The dose-response curves were fitted using the logistic model LOGISTIC5 available in Origin 2021, which could provide a more adequate fit to asymmetric dose-response data[62],[63]. Excitation spectra were scanned from 300 to 540 nm with a step size of 5 nm, and the emission wavelength was set to 560 nm. Emission spectra were scanned from 470 to 700 nm with a step size of 5 nm, and the excitation wavelength was set to 450 nm. The thermal stability of […] was analyzed using the UNcle multifunctional protein stability analysis system. Measurements were performed in 20 mM MOPS buffer with 2 mM DTT at a sample concentration of 1 mg/mL. Absolute fluorescence quantum yields were measured using an absolute photoluminescence quantum yield spectrometer (FS5, Edinburgh).
# [6] = molecular target: T2, GECFINDER-4CA (Nicotiana tabacum, UniProt O24146); assay: Fluorescence dose-response of purified cpEGFP sensors (0.75 uM) in 100 mM Tris-HCl pH 7.5, room temperature, 1 mM ATP, 2.5 mM MgCl2; excitation 400, 460 or 480 nm by sensor, emission 510 nm; logistic five-parameter fit.; format: biochemical; details: n = 3
# T2 construct: gene 4CL2; cpEGFP with fixed linkers (LE-cpEGFP-TR) inserted between Leu439 and Ile440 in hinge A of Nt4CL2
# Experimental: Fig. 3 Dose–response curves and fluorescence spectrums of […]s. a, c, e, g, i, k Dose–response curve of purified […]s with increasing concentrations of ligand in 100 mM Tris-HCl buffer (pH=7.5). The normalized ΔF/F0 value increased after ligand binding. All data shown are mean ± S.D. (n = 3 biologically independent samples). b, d, f, h, j, l The fluorescence spectra of […]s changed as the ligand concentration increased. All data shown are mean ± S.D. (n = 3 biologically independent samples). Source data are provided as a Source data file.
# as §2
# [7] = Dose–response curve of purified […] with 4-coumaric acid; format: biochemical
# Experimental: as §1
# The study conducted dose–response curve, substrate specificity, and fluorescent spectrum analyses in 100-mM Tris buffer (pH = 7.5), while pH stability experiments were performed in 100-mM Tris buffer at three different pH values (6.5, 7.5, and 8.5) at room temperature. […] Fluorescent signals were detected using a Microplate Reader (Synergy H4, Bio Tek) at an excitation/emission wavelength of 460 nm/510 nm or 480 nm/510 nm. The dose-response curve was determined immediately after the addition of the analyte. The total duration of the measurement was 15 min, with readings taken at one-minute intervals. The dose-response curve was plotted using the fluorescence values obtained after achieving stability in the fluorescence signal. […] Excitation spectra were scanned from 300 to 540 nm with a step size of 5 nm, and the emission wavelength was set to 560 nm. Emission spectra were scanned from 470 to 700 nm with a step size of 5 nm, and the excitation wavelength was set to 450 nm. The thermal stability of […] was analyzed using the UNcle multifunctional protein stability analysis system. Measurements were performed in 20 mM MOPS buffer with 2 mM DTT at a sample concentration of 1 mg/mL. Absolute fluorescence quantum yields were measured using an absolute photoluminescence quantum yield spectrometer (FS5, Edinburgh).
# T1 sequence (P39845 434-960): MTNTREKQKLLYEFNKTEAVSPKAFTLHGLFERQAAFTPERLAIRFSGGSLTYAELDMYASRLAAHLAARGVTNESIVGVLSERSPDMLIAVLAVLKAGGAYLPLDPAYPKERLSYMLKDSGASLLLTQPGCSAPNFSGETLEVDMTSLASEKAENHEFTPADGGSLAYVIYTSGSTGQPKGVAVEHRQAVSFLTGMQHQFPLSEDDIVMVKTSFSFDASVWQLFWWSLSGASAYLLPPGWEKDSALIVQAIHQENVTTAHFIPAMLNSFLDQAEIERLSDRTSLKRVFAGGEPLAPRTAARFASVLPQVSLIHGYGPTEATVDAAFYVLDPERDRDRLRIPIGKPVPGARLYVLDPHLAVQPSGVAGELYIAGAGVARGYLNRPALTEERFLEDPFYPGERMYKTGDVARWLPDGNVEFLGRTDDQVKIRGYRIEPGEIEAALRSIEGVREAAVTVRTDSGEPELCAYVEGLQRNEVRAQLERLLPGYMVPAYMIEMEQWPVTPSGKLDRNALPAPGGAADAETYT
# T2 sequence (O24146 2-542): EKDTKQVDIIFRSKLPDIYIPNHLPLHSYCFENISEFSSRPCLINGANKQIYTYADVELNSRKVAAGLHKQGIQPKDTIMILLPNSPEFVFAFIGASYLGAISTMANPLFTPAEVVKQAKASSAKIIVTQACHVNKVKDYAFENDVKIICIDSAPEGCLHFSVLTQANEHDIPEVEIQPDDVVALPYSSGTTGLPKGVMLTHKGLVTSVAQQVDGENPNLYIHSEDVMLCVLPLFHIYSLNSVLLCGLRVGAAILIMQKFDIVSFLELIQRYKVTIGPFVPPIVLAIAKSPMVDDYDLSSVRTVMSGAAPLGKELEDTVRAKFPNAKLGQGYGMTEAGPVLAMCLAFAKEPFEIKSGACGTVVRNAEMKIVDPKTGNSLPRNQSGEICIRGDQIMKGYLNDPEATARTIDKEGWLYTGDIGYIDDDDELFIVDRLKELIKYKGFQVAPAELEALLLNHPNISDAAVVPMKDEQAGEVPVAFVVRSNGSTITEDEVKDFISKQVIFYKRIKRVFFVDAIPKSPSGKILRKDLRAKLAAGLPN
smiles,measurement,setting,value
"Nc1ncnc2c1ncn2[C@@H]1O[C@H](COP(=O)(O)OP(=O)(O)OP(=O)(O)O)[C@@H](O)[C@H]1O [ATP, adenosine triphosphate]",Km,[1],163 µM
same,EC50,[2],69.3 ± 4.69 µM
same,Km,[3],150 µM
same,"fluorescence intensity, AVE of 3 repeats","[4]; Supplementary Fig. 4 a, Mg+ +, 4-coumaric acid -",2171.67
same,"fluorescence intensity, AVE of 3 repeats","[4]; Supplementary Fig. 4 a, Mg+ -, 4-coumaric acid -",2266.67
same,"fluorescence intensity, AVE of 3 repeats","[4]; Supplementary Fig. 4 b, Mg+ +, phenylalanine -",9194
same,"fluorescence intensity, AVE of 3 repeats","[4]; Supplementary Fig. 4 b, Mg+ -, phenylalanine -",7173.67
same,"fluorescence intensity, AVE of 3 repeats","[4]; Supplementary Fig. 4 c, Mg+ +, glutamine -",17330.3
same,"fluorescence intensity, AVE of 3 repeats","[4]; Supplementary Fig. 4 c, Mg+ -, glutamine -",17083
same,"fluorescence intensity, AVE of 3 repeats","[4]; Supplementary Fig. 4 e, Mg+ +, isoleucine -",12985
same,"fluorescence intensity, AVE of 3 repeats","[4]; Supplementary Fig. 4 e, Mg+ -, isoleucine -",12174.7
same,"fluorescence intensity, AVE of 3 repeats","[4]; Supplementary Fig. 4 f, Mg+ +, histidine -",25974
same,"fluorescence intensity, AVE of 3 repeats","[4]; Supplementary Fig. 4 f, Mg+ -, histidine -",26138.3
same,"fluorescence intensity, AVE of 3 repeats","[4]; Supplementary Fig. 4 g, Mg+ +, leucine -",7346.67
same,"fluorescence intensity, AVE of 3 repeats","[4]; Supplementary Fig. 4 g, Mg+ -, leucine -",6910.33
same,"fluorescence intensity, AVE of 3 repeats","[4]; Supplementary Fig. 4 i, Mg+ +, tyrosine -",5938.67
same,"fluorescence intensity, AVE of 3 repeats","[4]; Supplementary Fig. 4 i, Mg+ -, tyrosine -",5712
same,"fluorescence intensity, AVE of 3 repeats","[4]; Supplementary Fig. 4 j, Mg+ +, phenylalanine -",7465
same,"fluorescence intensity, AVE of 3 repeats","[4]; Supplementary Fig. 4 j, Mg+ -, phenylalanine -",7633
same,"fluorescence intensity, AVE of 3 repeats","[4]; Supplementary Fig. 4 h, Mg+ +, S-β-phenylalanine -",5374.33
same,"fluorescence intensity, AVE of 3 repeats","[4]; Supplementary Fig. 4 h, Mg+ -, S-β-phenylalanine -",5014
same,"fluorescence intensity, AVE of 3 repeats","[4]; Supplementary Fig. 4 d, Mg+ +, proline -",50889
same,"fluorescence intensity, AVE of 3 repeats","[4]; Supplementary Fig. 4 d, Mg+ -, proline -",46119
O=C(O)/C=C/c1ccc(O)cc1 [4-coumaric acid],"Wavelength scan, AVE of Repeat 1-3 (Fig. 3 b)",[5]; 0.001 μM 4-coumaric acid,368
same,"Wavelength scan, AVE of Repeat 1-3 (Fig. 3 b)",[5]; 2.5 μM 4-coumaric acid,388.333
same,"Wavelength scan, AVE of Repeat 1-3 (Fig. 3 b)",[5]; 250 μM 4-coumaric acid,108.667
same,EC50,[6],1.03 ± 0.06 µM
same,"fluorescence intensity, AVE of 3 repeats","[4]; Supplementary Fig. 4 a, Mg+ +, 4-coumaric acid +",3682.33
same,"Dose-response, AVE of Repeat 1-3 (Fig. 3 a)",[7]; 4-coumaric acid 0.001 μM,0
same,"Dose-response, AVE of Repeat 1-3 (Fig. 3 a)",[7]; 4-coumaric acid 0.01 μM,0.02925
same,"Dose-response, AVE of Repeat 1-3 (Fig. 3 a)",[7]; 4-coumaric acid 0.25 μM,0.1354
same,"Dose-response, AVE of Repeat 1-3 (Fig. 3 a)",[7]; 4-coumaric acid 0.5 μM,0.2537
same,"Dose-response, AVE of Repeat 1-3 (Fig. 3 a)",[7]; 4-coumaric acid 2.5 μM,0.5733
same,"Dose-response, AVE of Repeat 1-3 (Fig. 3 a)",[7]; 4-coumaric acid 5 μM,0.6689
same,"Dose-response, AVE of Repeat 1-3 (Fig. 3 a)",[7]; 4-coumaric acid 25 μM,0.7533
same,"Dose-response, AVE of Repeat 1-3 (Fig. 3 a)",[7]; 4-coumaric acid 50 μM,0.7561
same,"Dose-response, AVE of Repeat 1-3 (Fig. 3 a)",[7]; 4-coumaric acid 250 μM,0.7978
same,"Dose-response, AVE of Repeat 1-3 (Fig. 3 a)",[7]; 4-coumaric acid 500 μM,0.7717
same,"Dose-response, AVE of Repeat 1-3 (Fig. 3 a)",[7]; 4-coumaric acid 2500 μM,0.8533
same,"Dose-response, AVE of Repeat 1-3 (Fig. 3 a)",[7]; 4-coumaric acid 5000 μM,0.8286
